Assay [1] has as its target T1, extracellular domain of EGFR protein (Homo sapiens, UniProt P00533). As to the kind of experiment: SPR analysis on immobilized EGFR extracellular domain. Conditions: analyte up to 250 μM, HBS-EP+ with 4% DMSO. The format is binding. (In SPR one partner is held on a chip, and binding of the other changes the refractive index at the surface.)
Assay [2] deals with T1, extracellular domain of EGFR protein. Conditions: cited from earlier work.

Ends that are not written are not given here.

`CC1=CC(C)=[N+]2C1=C(CCCC(=O)O)c1c(C)cc(C)n1[B-]2(F)F` [BODIPY 1]: the “Kind of binding to EGFR ECD in SPR sensorgram (in words)” value in assay [1] is given as “non-specific binding”.

On to “2: EGFR-L1 sequence modified with a glycine spacer, amide terminus (GLARLLT-NH2) [compound 2]”, for which the “Association and dissociation with EGFR ECD by SPR (in words)” value in assay [2] (earlier studies) was “fast association and dissociation”.

cyclo(K(N3)larllt) [reference compound]: in assay [2] (previously shown), the “Binding to EGFR (in words)” value is reported as “high affinity”.

The values above are taken from paper PMC8794222 (Photochemistry and photobiology, 2020).
